Active and inactive are the calls of the source. The rule behind the calls is not given here.
Experiments:
Staphylococcus aureus = assay: Antimicrobial activity against Staphylococcus aureus; format: functional, organism-based
Bacillus subtilis = assay: Antimicrobial activity against Bacillus subtilis; format: functional, organism-based
[1] = target: T1, Peroxisome proliferator-activated receptor gamma (Homo sapiens) (UniProt P37231); assay: Agonist activity at PPARgamma expressed in mouse NIH3T3 cells assessed as maximum activation at 10 uM after 16 hrs by reporter gene assay; format: functional, cell-based
T1 sequence (whole entry): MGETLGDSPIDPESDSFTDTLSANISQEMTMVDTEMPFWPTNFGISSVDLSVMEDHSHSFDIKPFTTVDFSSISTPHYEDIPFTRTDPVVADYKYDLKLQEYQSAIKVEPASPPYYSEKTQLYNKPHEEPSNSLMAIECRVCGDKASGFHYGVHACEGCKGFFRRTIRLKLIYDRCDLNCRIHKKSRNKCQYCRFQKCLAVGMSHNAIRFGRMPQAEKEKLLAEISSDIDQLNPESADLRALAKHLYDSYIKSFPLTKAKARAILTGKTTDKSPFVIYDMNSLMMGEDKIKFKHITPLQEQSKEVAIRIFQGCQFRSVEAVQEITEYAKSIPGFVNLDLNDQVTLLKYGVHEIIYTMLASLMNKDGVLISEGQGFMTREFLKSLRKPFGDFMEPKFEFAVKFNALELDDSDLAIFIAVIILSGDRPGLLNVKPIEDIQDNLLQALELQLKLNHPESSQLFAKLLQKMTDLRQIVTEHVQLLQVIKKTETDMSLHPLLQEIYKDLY

Escherichia coli = assay: Antimicrobial activity against Escherichia coli; format: functional, organism-based
[2] = target: T1, Peroxisome proliferator-activated receptor gamma (Homo sapiens); assay: Agonist activity at PPARgamma expressed in mouse NIH3T3 cells assessed as maximum activation at 100 uM after 16 hrs by reporter gene assay; format: functional, cell-based

Row | SMILES | Activity (Staphylococcus aureus) | Activity (Bacillus subtilis) | fold change (FC) [1] | Activity (Escherichia coli) | fold change (FC) [2]
1 | COc1c(Cl)c(Cl)c(Oc2c(O)c(Oc3c(Cl)c(Cl)c(OC)c(Cl)c3Cl)c(Cl)c(OC)c2Cl)c(Cl)c1Cl | inactive | inactive | 2 | inactive | –
2 | COc1c(Cl)c(Cl)c(Oc2c(Cl)c(OC)c(Cl)c(Cl)c2Oc2c(O)c(Cl)c(Cl)c(OC)c2Cl)c(Cl)c1Cl | inactive | inactive | 8.5 | inactive | –
3 | COc1c(Cl)c(Cl)c(Oc2c(O)c(Cl)c(OC)c(Cl)c2Oc2c(Cl)c(Cl)c(OC)c(Cl)c2Cl)c(Cl)c1Cl | inactive | inactive | 2 | inactive | –
4 | COc1c(Cl)c(Cl)c(O)c(Cl)c1Cl | – | – | – | – | 8.4

Source: ChEMBL document CHEMBL1156581, “Polychlorinated compounds with PPAR-gamma agonistic effect from the medicinal fungus Phellinus ribis” (Bioorg Med Chem Lett, 2008)
